Data published in ChEMBL document CHEMBL1201862, “PubChem BioAssay data set” (2004).
Calls of active or inactive are those of the source.

Assays:
Genome polyprotein = Genome polyprotein (dengue virus type 2, UniProt P29990); test: Dengue-2 NS5 methyltransferase inhibitors, primary screen, biochemical, confirmation dose response (AID 588689); assay type: functional
[1] = target: T1, RNA-binding protein pos-1 (Caenorhabditis elegans, UniProt G5EF15); test: inhibitors of POS-1/mex-3 RNA binding, dose response, biochemical, fluorescence polarization (AID 1964);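 further: purified POS-1 fused to maltose binding protein made in E. coli; potency of compounds blocking POS-1 binding to fluorescent RNA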
T1 sequence (G5EF15 whole entry): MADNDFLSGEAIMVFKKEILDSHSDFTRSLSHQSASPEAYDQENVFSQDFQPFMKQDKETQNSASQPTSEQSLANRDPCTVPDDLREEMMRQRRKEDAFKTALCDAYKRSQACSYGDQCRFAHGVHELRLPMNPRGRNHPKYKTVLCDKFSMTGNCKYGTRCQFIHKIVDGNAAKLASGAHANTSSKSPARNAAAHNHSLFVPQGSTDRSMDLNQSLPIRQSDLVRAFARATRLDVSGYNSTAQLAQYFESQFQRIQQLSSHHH

DNA topoisomerase = DNA topoisomerase (Yersinia pestis, UniProt A0A2S9PM60); test: Y. pestis Topo-I inhibitors, cleavage product readout, dose response, biochemical, cherry-pick (AID 588525)
[2] = target: T2, Zinc finger protein mex-5 (Caenorhabditis elegans, UniProt Q9XUB2); test: MEX-5/TCR-2 RNA interaction inhibitors, dose response, biochemical, C. elegans, fluorescence polarization (AID 1960)
T2 sequence (Q9XUB2 whole entry): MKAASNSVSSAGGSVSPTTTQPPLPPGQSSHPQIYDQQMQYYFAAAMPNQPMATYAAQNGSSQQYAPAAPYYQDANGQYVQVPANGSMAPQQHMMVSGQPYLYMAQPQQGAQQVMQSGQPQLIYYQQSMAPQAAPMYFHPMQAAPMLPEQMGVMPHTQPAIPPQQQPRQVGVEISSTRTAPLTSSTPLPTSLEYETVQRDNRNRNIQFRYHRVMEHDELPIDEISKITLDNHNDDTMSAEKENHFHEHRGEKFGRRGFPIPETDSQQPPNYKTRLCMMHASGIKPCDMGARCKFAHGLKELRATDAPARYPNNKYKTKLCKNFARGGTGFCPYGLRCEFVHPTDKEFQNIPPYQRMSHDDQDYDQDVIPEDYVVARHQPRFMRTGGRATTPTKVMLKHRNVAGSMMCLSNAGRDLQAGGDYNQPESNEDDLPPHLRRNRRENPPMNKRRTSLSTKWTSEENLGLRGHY

Phospholipase A2 = Phospholipase A2 (Homo sapiens, UniProt P04054); assay type: functional;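 further: confirmatory dose-response counterscreen on phospholipase A2, testing hits that came from an ultra-high-throughput screen for ATG4B inhibitors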
Cysteine protease ATG4B = Cysteine protease ATG4B (Homo sapiens, UniProt Q9Y4P1); assay type: functional;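 further: Fluorescence-based dose-response confirmation assay measuring inhibition of ATG4B activity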
[3] = target: Heat shock protein HSP 90-alpha (Homo sapiens, UniProt P07900); assay type: functional, organism-based
[4] = target: ATP-dependent molecular chaperone HSP82 (Candida albicans (strain WO-1) (Yeast), UniProt C4YTQ8); test: loss of DOC-induced GRE-beta-galactosidase reporter signal, dose response, Hsp90 inhibitor project, S. cerevisiae, luminescence (AID 2400); assay type: functional, cell-based;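 further: beta-galactosidase luminescence from glucocorticoid response element reporter as proxy for Hsp90 function; inhibitor potency where signal loss means Hsp90 inhibition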
[5] = insulin promoter down-regulators in MIN6 cells, imaging, high-content screening, mouse beta cells (AID 1628); assay type: functional
[6] = HepG2 cell cytotoxicity, dose response, cytotoxicity control for Shn3 inhibitor project, CellTiter-Glo, cherry-picked (AID 624134); assay type: functional, cell-based
HEK293 [7] = test: SAR Analysis of small molecule inhibitors of T-cell specific antigen receptor-induced NF-kB activation in a HEK-293T cell line using a luminescence assay - Set 2. [Related pubchem assays (depositor defined):AID435003, AID435012, AID489026]; assay type: functional, cell-based; conditions: Homo sapiens
HEK293 [8] = test: SAR Analysis of small molecule inhibitors of T-cell specific antigen receptor-induced NF-kB activation in a HEK-293T cell line using a luminescence assay. [Related pubchem assays (depositor defined):AID435003, AID435012, AID489026]; assay type: functional, cell-based; conditions: Homo sapiens
[9] = control 3'UTR Renilla luciferase suppression, dose response, counter-screen for Shn3 inhibitor project, cell-based, Clone20-Shn3RL, cherry-picked (AID 624133); assay type: functional
[10] = NIH-3T3 fibroblast cytotoxicity, dose response, cytotoxicity control, cell-based, fluorescence, Alamar Blue, secondary assay (AID 2327); assay type: functional;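 further: NIH-3T3 mouse fibroblasts cultured with fluconazole at 8 µg/mL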
[11] = cytotoxicity toward NIH3T3 fibroblasts, dose response, counter-screen, cell-based, ATP luminescence, mouse fibroblasts (AID 2010); assay type: functional;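 further: cells exposed to compound for about 90 hours before reading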
Jurkat [12] = test: SAR Analysis of small molecule inhibitors of T-cell specific antigen receptor-induced NF-kB activation in a Jurkat cell line using a luminescence assay. [Related pubchem assays (depositor defined):AID435003, AID435012, AID465]; assay type: functional, cell-based; conditions: Homo sapiens
cells [13] = assay type: functional, cell-based
[14] = Counterscreen for AddAB inhibitors: absorbance-based bacterial cell-based high throughput dose response assay for inhibitors of bacterial viability. [Related pubchem assays (depositor defined):AID435030, AID449728, AID449731, AID488942, AID488955, AID488956]; assay type: functional
Exodeoxyribonuclease V = Exodeoxyribonuclease V (Escherichia coli (strain K12), UniProt P04993+P07648+P08394); test: E. coli RecBCD inhibitors, dose response, counter-screen for AddAB inhibitor project, absorbance, V66 E. coli, mutant T4 phage (AID 492957); assay type: functional, cell-based, Escherichia coli str. K-12 substr. MG1655
cells [15] = assay type: functional, cell-based; remark: listed apart in the source
[16] = inhibitors of intracellular T. cruzi replication, confirmation, NIH3T3 host cells, beta-gal luminescence (AID 2044); assay type: functional, cell-based;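 further: intracellular parasites grown in NIH/3T3 mouse fibroblasts as host cells; luminescent beta-galactosidase reporter signal from transgenic T. cruzi replicating inside host cells; inhibitors lower the luminescence signal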
Jurkat [17] = test: SAR Analysis of small molecule inhibitors of T-cell specific antigen receptor-induced NF-kB activation in a Jurkat cell line using a luminescence assay - Set 2. [Related pubchem assays (depositor defined):AID435003, AID435012, AID465]; assay type: functional, cell-based; conditions: Homo sapiens
[18] = target: Serine/threonine-protein phosphatase (Candida dubliniensis (strain CD36 / CBS 7987 / NCPF 3949 / NRRLY-17841) (Yeast), UniProt B9W6M3); test: calcineurin pathway inhibitors in yeast reporter, dose response, S. cerevisiae, CDRE-lacZ, luminescence, secondary (AID 2388); assay type: functional, cell-based;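 further: yeast reporter cells carrying a calcineurin-responsive lacZ construct stimulated with calcium chloride; luminescent beta-galactosidase reporter signal in whole cells rather than isolated phosphatase activity; potency for inhibition where a drop in reporter signal means calcineurin blockade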
[19] = Shn3 3'UTR reporter inhibitors, dose response, cell-based, Clone20 osteoblasts, firefly luciferase, cherry-picked (AID 624132); assay type: functional;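 further: firefly luciferase luminescence from reporter carrying the Shn3 3'UTR in osteoblasts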
INS1 = test: beta cell apoptosis inhibitors, cytokine rescue, dose response, luminescence, retest (AID 449756); assay type: functional, cell-based; conditions: Rattus norvegicus;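 further: cell death triggered by IL-1 beta plus TNF-alpha plus IFN-gamma mixture; protective hits raise ATP signal compared with cytokine alone wells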
[20] = C. albicans growth with fluconazole, confirmation, fluorescence, retest (AID 2467); assay type: functional, cell-based
[21] = cytotoxicity in MIN6 insulinoma cells, dose response, cytotoxicity control, cell-based, mouse insulinoma (AID 2122); assay type: functional;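 further: confirmatory high-throughput counterscreen run to flag cytotoxic compounds; mouse MIN-6 beta cells carrying an insulin promoter eGFP reporter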
[22] = cytotoxicity in HEK-293T cells, dose response, cytotoxicity control for TCR NF-kB inhibitor project, luminescence, T-cell screen hits (AID 489026); assay type: functional, cell-based;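 further: cells exposed to compound about 14 hours before the viability readout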

Sequence of ATP-dependent molecular chaperone HSP82 (C4YTQ8 whole entry): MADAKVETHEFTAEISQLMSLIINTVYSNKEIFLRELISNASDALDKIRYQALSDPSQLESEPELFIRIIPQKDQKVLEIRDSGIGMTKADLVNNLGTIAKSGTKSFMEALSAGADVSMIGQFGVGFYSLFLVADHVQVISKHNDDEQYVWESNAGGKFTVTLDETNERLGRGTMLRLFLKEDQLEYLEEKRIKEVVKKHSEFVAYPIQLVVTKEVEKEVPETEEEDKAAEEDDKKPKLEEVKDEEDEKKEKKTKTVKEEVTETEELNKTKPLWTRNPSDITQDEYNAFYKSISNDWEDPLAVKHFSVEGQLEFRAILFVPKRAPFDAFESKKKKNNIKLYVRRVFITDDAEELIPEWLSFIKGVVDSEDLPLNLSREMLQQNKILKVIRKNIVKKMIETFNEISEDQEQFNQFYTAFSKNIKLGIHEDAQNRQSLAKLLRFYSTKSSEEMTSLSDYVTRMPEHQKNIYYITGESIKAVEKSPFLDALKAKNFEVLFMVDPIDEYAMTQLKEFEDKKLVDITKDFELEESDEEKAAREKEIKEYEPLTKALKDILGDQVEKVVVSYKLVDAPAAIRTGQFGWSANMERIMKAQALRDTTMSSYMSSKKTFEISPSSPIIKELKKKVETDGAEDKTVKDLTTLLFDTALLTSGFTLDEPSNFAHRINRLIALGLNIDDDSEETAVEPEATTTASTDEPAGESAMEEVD
Sequence of Exodeoxyribonuclease V (P04993 whole entry): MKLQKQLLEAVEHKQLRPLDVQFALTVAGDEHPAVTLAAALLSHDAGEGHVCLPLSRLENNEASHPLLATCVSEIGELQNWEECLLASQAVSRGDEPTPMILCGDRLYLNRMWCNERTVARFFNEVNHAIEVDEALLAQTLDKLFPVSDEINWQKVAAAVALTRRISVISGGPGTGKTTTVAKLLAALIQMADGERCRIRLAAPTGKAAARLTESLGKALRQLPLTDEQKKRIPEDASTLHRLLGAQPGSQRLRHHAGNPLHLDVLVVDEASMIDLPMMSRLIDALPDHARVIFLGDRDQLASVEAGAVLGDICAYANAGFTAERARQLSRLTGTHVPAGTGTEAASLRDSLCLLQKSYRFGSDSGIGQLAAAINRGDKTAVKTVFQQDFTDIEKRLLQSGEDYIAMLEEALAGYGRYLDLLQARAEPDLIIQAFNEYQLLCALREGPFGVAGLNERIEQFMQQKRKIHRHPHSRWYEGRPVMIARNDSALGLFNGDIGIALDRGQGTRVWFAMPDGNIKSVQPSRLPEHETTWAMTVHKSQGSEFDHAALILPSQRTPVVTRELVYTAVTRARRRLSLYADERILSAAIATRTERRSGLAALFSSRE
Sequence of Exodeoxyribonuclease V (P07648 whole entry): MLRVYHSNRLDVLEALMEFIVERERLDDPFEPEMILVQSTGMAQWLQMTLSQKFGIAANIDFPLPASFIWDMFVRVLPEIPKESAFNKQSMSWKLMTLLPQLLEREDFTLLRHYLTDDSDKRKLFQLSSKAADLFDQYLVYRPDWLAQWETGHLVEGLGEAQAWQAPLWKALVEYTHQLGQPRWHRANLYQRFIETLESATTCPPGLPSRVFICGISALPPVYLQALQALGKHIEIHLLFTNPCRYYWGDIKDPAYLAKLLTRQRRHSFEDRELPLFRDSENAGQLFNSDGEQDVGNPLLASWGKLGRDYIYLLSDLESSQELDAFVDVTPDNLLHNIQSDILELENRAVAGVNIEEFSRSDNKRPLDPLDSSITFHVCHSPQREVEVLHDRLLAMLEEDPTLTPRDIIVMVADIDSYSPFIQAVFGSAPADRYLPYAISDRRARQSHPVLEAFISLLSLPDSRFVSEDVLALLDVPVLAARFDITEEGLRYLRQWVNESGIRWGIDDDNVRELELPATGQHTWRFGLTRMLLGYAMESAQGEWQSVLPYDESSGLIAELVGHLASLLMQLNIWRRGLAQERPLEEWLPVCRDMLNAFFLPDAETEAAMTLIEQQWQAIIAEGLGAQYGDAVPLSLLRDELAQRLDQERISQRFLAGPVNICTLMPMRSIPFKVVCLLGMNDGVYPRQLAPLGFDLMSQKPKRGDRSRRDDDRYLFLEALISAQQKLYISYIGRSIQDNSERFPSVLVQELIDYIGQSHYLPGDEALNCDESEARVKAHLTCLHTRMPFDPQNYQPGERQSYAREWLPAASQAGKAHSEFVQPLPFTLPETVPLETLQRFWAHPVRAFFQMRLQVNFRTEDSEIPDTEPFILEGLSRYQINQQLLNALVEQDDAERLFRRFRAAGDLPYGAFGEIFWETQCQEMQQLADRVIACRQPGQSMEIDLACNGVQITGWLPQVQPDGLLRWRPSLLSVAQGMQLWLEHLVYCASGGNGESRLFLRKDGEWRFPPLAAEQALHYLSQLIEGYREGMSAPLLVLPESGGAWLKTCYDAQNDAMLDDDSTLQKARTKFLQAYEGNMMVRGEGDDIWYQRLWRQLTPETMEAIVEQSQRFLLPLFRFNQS
Sequence of Exodeoxyribonuclease V (P08394 whole entry): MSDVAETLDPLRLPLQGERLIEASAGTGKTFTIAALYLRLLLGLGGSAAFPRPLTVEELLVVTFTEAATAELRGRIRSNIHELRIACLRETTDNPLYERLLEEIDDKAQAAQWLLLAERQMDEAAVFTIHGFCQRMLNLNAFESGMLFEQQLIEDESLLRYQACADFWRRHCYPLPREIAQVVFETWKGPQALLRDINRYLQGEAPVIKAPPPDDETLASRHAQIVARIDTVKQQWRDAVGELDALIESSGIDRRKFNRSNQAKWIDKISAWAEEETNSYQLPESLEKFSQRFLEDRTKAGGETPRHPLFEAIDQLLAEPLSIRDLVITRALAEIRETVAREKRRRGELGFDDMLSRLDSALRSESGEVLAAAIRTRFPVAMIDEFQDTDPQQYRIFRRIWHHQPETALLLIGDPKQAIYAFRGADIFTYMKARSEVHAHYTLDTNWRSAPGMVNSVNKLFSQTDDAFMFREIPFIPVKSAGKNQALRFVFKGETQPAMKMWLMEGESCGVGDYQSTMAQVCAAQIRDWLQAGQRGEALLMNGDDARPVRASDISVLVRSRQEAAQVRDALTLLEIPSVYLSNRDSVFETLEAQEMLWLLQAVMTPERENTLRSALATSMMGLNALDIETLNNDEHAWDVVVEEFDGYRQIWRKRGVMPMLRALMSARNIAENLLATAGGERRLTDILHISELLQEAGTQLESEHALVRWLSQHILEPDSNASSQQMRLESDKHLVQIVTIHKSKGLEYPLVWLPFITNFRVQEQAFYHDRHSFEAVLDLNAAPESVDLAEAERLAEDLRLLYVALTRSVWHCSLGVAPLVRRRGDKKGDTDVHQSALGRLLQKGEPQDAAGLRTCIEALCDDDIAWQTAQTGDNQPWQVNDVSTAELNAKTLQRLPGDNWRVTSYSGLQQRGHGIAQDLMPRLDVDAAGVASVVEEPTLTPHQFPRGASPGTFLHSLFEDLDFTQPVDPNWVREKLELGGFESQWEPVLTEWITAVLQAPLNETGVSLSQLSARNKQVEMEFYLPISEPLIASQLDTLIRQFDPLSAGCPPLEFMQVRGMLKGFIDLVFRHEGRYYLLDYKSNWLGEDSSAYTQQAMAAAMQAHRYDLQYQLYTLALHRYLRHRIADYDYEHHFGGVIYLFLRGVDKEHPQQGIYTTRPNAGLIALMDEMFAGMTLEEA
Sequence of Genome polyprotein (P29990 2492-3391 limits assumed): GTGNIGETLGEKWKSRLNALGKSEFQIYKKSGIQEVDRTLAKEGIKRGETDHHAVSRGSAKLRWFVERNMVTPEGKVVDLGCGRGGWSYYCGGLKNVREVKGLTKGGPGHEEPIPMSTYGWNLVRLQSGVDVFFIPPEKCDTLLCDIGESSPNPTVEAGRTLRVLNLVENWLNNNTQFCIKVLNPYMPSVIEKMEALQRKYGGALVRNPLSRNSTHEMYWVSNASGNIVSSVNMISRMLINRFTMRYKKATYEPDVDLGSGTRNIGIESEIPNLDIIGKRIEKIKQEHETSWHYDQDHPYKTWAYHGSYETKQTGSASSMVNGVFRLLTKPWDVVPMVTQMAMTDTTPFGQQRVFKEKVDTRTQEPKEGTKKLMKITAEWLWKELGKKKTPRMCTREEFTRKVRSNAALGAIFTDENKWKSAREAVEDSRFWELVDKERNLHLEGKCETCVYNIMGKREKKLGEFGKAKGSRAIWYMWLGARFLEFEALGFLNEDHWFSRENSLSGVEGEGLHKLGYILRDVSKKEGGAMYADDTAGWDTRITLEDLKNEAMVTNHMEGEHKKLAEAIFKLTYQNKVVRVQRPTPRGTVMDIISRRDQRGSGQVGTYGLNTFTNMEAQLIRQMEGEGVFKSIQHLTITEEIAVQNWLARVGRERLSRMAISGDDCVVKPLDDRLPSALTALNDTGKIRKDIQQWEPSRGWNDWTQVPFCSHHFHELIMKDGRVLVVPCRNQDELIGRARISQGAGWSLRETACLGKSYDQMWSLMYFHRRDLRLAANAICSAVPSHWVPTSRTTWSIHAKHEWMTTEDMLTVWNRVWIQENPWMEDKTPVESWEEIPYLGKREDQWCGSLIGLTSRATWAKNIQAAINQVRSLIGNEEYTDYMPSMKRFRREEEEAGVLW
Sequence of Cysteine protease ATG4B (Q9Y4P1 whole entry): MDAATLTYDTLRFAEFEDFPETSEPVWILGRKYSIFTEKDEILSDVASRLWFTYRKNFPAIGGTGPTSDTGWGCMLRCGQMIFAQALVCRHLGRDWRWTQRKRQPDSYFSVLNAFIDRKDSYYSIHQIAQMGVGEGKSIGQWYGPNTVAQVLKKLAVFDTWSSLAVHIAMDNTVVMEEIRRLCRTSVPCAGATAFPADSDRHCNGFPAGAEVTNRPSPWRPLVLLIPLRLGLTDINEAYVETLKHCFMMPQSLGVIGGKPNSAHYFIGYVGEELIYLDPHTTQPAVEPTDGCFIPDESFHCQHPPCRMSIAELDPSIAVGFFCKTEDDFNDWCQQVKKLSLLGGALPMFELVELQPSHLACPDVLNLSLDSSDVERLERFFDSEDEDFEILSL
Sequence of Phospholipase A2 (P04054 whole entry): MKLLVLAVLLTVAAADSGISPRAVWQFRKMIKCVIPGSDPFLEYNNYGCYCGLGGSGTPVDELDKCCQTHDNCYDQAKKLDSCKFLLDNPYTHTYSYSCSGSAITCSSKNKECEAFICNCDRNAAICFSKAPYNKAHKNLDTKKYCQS

For C=CCOc1cccc(C2C(C(=O)c3cc4ccccc4o3)=C(O)C(=O)N2c2cc(C)on2)c1 (stereo not drawn), the IC50 (Genome polyprotein) was 48.6 µM (active), the EC50 [1] was > 300 µM (not active) and the AC50 (DNA topoisomerase) was 7.35 µM (active). For the same compound, the EC50 [2] was 80.5 µM (active).
In the case of CCCCCCCCCCCCCCCCCCNc1ccn(C2OC(COP(=O)(O)OCC3OC(n4cc(F)c(=O)[nH]c4=O)CC3O)C(O)C2O)c(=O)n1 (stereo not drawn), the IC50 (Phospholipase A2) is reported as 9.09 µM (active) and the IC50 (Cysteine protease ATG4B) is reported as 10.8 µM (active).
In the case of CCCC(=O)NC(c1ccc(OC)cc1)c1ccc2cccnc2c1O (stereo not drawn), the AC50 [3] is reported as 4.08 µM (active), the EC50 [4] is reported as > 160 µM (inactive) and the IC50 [5] is reported as 1.23 µM (active). The AC50 [6] was 2.33 µM (active), the IC50 (HEK293 [7]) was 3.64 µM (active) and the IC50 (HEK293 [8]) was 4.92 µM (active). For the same compound, the AC50 [9] was 1.08 µM (active), the EC50 [10] was 41.4 µM (active) and the EC50 [11] was 1.4 µM (active). The IC50 (Jurkat [12]) was 2.96 µM (active), the EC50 (cells [13]) was > 350 µM (not active) and the IC50 [14] was > 119 µM (inactive). For the same compound, the IC50 (Exodeoxyribonuclease V) was > 119 µM (inactive), the EC50 (cells [15]) was 6.31 µM (active) and the EC50 [16] was 0.527 µM (active). The IC50 (Jurkat [17]) was 3.11 µM (active), the EC50 [18] was > 180 µM (inactive) and the AC50 [19] was 1.18 µM (active). The AC50 (INS1) was 0.696 µM (active), the EC50 [20] was 0.349 µM (active) and the IC50 [21] was 1.52 µM (active). For the same compound, the IC50 [22] was > 80 µM (inactive).
